Assay results: patent US20240016734A1 (Aquestive Therapeutics, Inc., priority 2022, published 2024)
Marks after values point to notes of the source that are not given here.

Legend:
in vivo = assay: in vivo
Method: The study compared various dose routes: sublingual (SL), per oral tablet (PO), subcutaneous (SC) and intravenous (IV). […] An Oral Irritation assessment was performed (SL film group): Predose (0) and 24 hr postdose by Draize scoring.

[1] = assay type: in vitro ADME, porcine; conditions: pig, 360 min
Excerpt: FIG. 41B depicts a comparison of individual adrenergic receptor interacters in terms of amount permeated as a function of time.
FIG. 41C depicts ex vivo permeation as a function of time of different adrenergic receptor interacters in DESF compositions. The ex-vivo permeation in this example involved the exposure of porcine buccal tissue to formulations varying with regard to permeation enhancer(s) used and API concentration. […] Amount permeated increases with eugenol content, where eugenol contents in both test formulations were lower than that used in the control.
Ex-vivo permeation involved the exposure of porcine buccal tissue to formulations varying with regard to permeation enhancer(s) used and API concentration. […] Amount permeated increased with eugenol content, where eugenol contents in both test formulations were lower than that used in the control.

[2] = concentration ranges explored
[3] = Ex vivo permeation of epinephrine, Franz diffusion cell
Method: A franz diffusion cell is obtained and prepared.
If testing films, one can perform the following next steps: (1) weigh films, punch to match diffusion area (or smaller), reweigh, record pre- and post-punching weight; (2) wet a donor area with approximately 100 μL of phosphate buffer; (3) place film on a donor surface, top with 400 μL of phosphate buffer, and start timers.
The tissue is dermatomed to precise thickness. • 4. […] The media is selected to ensure sink conditions. • 5.

[4] = modified Ussing chambers; cited from earlier work
[5] = in PBS (pH 7.4) at 37°±1° C., n=6; cited from earlier work
[6] = AQ109201 safety, adverse events; assay type: in vivo, human
[7] = AQST-109 12 mg residence time / food / swallowed film PK study; assay type: in vivo, human; conditions: for Cmax / AUC(0-t): AQST-109 12 mg (N = 48 doses), Epinephrine IM Injection 0.3 mg (N = 48 doses)
Method: In this example, three different residence times were tested. The 4 minute residence time is shown in circle data points. The 2 minute residence time is shown in downward pointing triangle data points. The 0 minute residence time is shown in upward pointing triangle data points.
The purpose of this investigation was to continue to study the administration of the film under a variety of conditions and further characterize its pharmacokinetics, pharmacodynamics, and safety. The final two arms of the study were designed to assess the impact of (1) administering the film sublingually two minutes after consuming food—in this case, a peanut butter sandwich, and (2) swallowing the film whole immediately with 240 mL of water. The control arm used for reference was the optimized sublingual film administration with a four-minute residence time.

[8] = AQST-109 single and repeat dose PK vs EpiPen and 0.3 mg IM (AQ109201); assay type: in vivo, human; conditions: for AUC(0-t) / Cmax / Tmax: human, plasma, intramuscular, 0.3 mg
Method: Referring to FIG. 35, the study was a controlled study in healthy volunteers. […] However, the need and use of a second dose can be quite rare. […] Within this context, a post hoc analysis was performed.

[9] = Pilot PK study of auto-injectors vs 0.3 mg manual IM injection; assay type: in vivo; conditions: human, plasma, intramuscular, 27 healthy subjects, crossover
[10] = single dose: 12 mg, 0.3 mg, EpiPen

In the case of `CNC[C@H](O)c1ccc(OC(=O)C(C)(C)C)c(OC(=O)C(C)(C)C)c1` (racemic) [Dipi Solution, dipivefrin], the “% Boiavailability (DIPI AUC0-t)” value (in vivo) is reported as 128.5%, the “% Boiavailability (EPI AUC0-t)” value (in vivo) is reported as 131.0% and the “time until cleared from the system” value (in vivo; iv) is reported as no more than 2 h. The AUC(0-t) (in vivo; iv, 1 mg) was 0.887 ng·h/mL, the Cmax (in vivo; iv, 1 mg) was 11.7 ng/mL and the “EPI Cmax (mean)” value (in vivo; iv, 1 mg) was 7.62 ng/mL. For the same compound, the “DIPI AUC0-t” value (in vivo; po, 6 mg) was 0, the “EPI Cmax (mean)” value (in vivo; po, 6 mg) was 0.28 ng/mL and the “EPI Tmax” value (in vivo; po, 6 mg) was 120 min. The Tmax (in vivo; po, 6 mg) was 0 min, the AUC(0-t) (in vivo; sc, 22 mg) was 25.1 ng·h/mL and the Cmax (in vivo; sc, 22 mg) was 15 ng/mL. The “EPI Cmax (mean)” value (in vivo; sc, 22 mg) was 12.5 ng/mL, the “EPI Tmax” value (in vivo; sc, 22 mg) was 180 min and the Tmax (in vivo; sc, 22 mg) was 5 min.
With `Cc1ccc(C(C)(C)O)cc1` [cherry propanol, 2-(4-methylphenyl)propan-2-ol] the amount permeated [1] was 0 to 50 µg.
For `CNC[C@H](O)c1ccc(O)c(O)c1` [Epinephrine Bitartrate], the “inherent pH in solution” value [2] was 4.5-5, the “permeation as a function of solution pH” value [3] was “slightly favorable” and the Theoretical enhancement ([3]; 8 mg/mL) was 2. The Theoretical enhancement ([3]; 16 mg/mL) was 4, the Theoretical enhancement ([3]; 100 mg/mL) was 25 and the average amount permeated ([3]; 30 min, 16 mg/mL) was 0. It also gave an average flux ([3]; 30 min, 16 mg/mL) of 0 μg/cm^2 * min, an average amount permeated ([3]; 45 min, 16 mg/mL) of 2.5 and an average flux ([3]; 45 min, 16 mg/mL) of 0.2604 μg/cm^2 * min. It also gave an average amount permeated ([3]; 60 min, 16 mg/mL) of 5.5, an average flux ([3]; 60 min, 16 mg/mL) of 0.3125 μg/cm^2 * min and an average amount permeated ([3]; 120 min, 16 mg/mL) of 31.33. It also gave an average flux ([3]; 120 min, 16 mg/mL) of 0.6727 μg/cm^2 * min, an average amount permeated ([3]; 180 min, 8 mg/0.500 mL) of 72.67 and an average flux ([3]; 180 min, 8 mg/mL) of 1.076 μg/cm^2 * min. It also gave an average amount permeated ([3]; 240 min, 16 mg/mL) of 112.2, an average flux ([3]; 240 min, 16 mg/mL) of 1.029 μg/cm^2 * min and an average amount permeated ([3]; 300 min, 16 mg/mL) of 160.2. The average flux ([3]; 300 min, 16 mg/mL) was 1.25 μg/cm^2 * min, the “Average Steady State Flux” value ([3]; 360 min, 4 mg/mL) was 0.167 ug/cm^2*min and the “Average Steady State Flux” value ([3]; 360 min, 8 mg/mL) was 0.466 ug/cm^2*min. For the same compound, the average amount permeated ([3]; 360 min, 16 mg/mL) was 213.3, the average flux ([3]; 360 min, 16 mg/mL) was 1.385 μg/cm^2 * min and the “steady state flux average” value ([3]; 360 min, 16 mg/mL) was 1.317. The “Average Steady State Flux” value ([3]; 360 min, 100 mg/mL) was 2.942 ug/cm^2*min.
In the case of `CNC[C@H](O)c1ccc(O)c(O)c1` [Epinephrine Base], the “Average Steady State Flux” value ([3]; conc 4.4 mg/mL, solubilized in situ) is reported as 0.512 ug/cm^2*min.
`OCc1ccccc1` [benzyl alcohol] showed an amount permeated [1] of 50 to 100 µg.
In the case of `C=CCc1ccc(O)c(OC)c1` [100% Eugenol], the “Permeability Coefficient” value [3] is reported as 38.4 ×10⁻⁶ cm/s.
With `C=CCc1ccc(O)c(OC)c1` [0.3% Eugenol] the “Permeability Coefficient” value [3] was 4.14 ×10⁻⁶ cm/s.
For `Cn1c(=O)c2c(ncn2C)n(C)c1=O` [caffeine], the “permeability through buccal epithelium compared with full thickness buccal tissue” value [4] is listed as 1.8 fold.
In the case of `C=CCc1ccc(O)c(OC)c1` [eugenol], the amount permeated [1] is reported as 50 to 275 µg.
For `CC(C)NCC(O)COc1cccc2ccccc12` (stereo not shown) [PP], the “C0 of saturated solution” value [5] is given as 588.005 ± 5.852 ng/mL.
With `C=CCc1ccc(O)c(OC)c1` [3% Eugenol] the “Permeability Coefficient” value [3] was 7.43 ×10⁻⁶ cm/s.
With `CNC[C@H](O)c1ccc(O)c(O)c1` [Epinephrine IM Injection, epinephrine] the Cardiac disorders ([6]; repeat dose: 24 mg (N = 23), 0.6 mg (N = 23)) was 1 (4.3) n (%), the Palpitations ([6]; repeat dose: 24 mg, 0.6 mg) was 1 (4.3) n (%) and the Ventricular extrasystoles ([6]; repeat dose: 24 mg, 0.6 mg) was 1 (4.3) n (%). For the same compound, the Cardiac disorders ([6]; single dose: 12 mg (N = 23), 0.3 mg (N = 23), EpiPen (N = 22)) was 1 (4.3) n (%), the Palpitations [6, 10] was 1 (4.3) n (%) and the Ventricular extrasystoles [6, 10] was 0 n (%). The “median time to reach 100 pg/mL” value ([7]; AQST-109 at 4-minute residence, 0.3 mg IM injection) was 10 min, the Cmax ([7]; human, plasma, im, 0.3 mg, read-out: Arithmetic Mean Cmax) was 0.397 ng/mL and the Cmax ([7]; human, plasma, im, 0.3 mg, read-out: Geometric Cmax) was 0.351 ng/mL. The AUC(0-t) ([7]; human, plasma, im, 0.3 mg, AUC 0-20 minutes) was 0.023 ng·h/mL, the AUC(0-t) ([7]; human, plasma, im, 0.3 mg, AUC 0-30 minutes) was 0.0475 ng·h/mL and the Tmax ([7]; human, plasma, im, 0.3 mg, read-out: median time to maximum concentration (Tmax) (converted)) was 50 min. The AUC(0-t) ([8]; AUC 0-30 min, Repeat Dose (10 min)) was 0.067 ng·h/mL, the Cmax ([8]; Repeat Dose (10 min), geometric mean, read-out: Cmax) was 0.755 ng/mL and the AUC(0-t) ([8]; Repeat Dose (10 min), read-out: AUC0-45 min) was 0.181 ng·h/mL. It also gave an AUC(0-t) ([8]; Repeat Dose (10 min), read-out: AUC 0-t) of 1.3 ng·h/mL, a Tmax ([8]; Repeat Dose (10 min), read-out: Tmax (median) (converted)) of 50 min and a Tmax ([8]; Repeat Dose (10 min), read-out: Tmax Range) of 30 to 70 min. For the same compound, the Cmax ([8]; after one dose, read-out: maximum concentration, CMax) was 0.489 ng/mL, the Cmax ([8]; after two doses, second dose ten minutes after the first, read-out: maximum concentration, CMax) was 0.911 ng/mL and the Tmax ([8]; single dose administration, read-out: Tmax (median) (converted)) was 45 min. For the same compound, the “time after second dose administration until impact on PK profile” value ([8]; repeat dosing) was “over 20 min”, the Cmax ([9]; read-out: geometric mean Cmax) was 0.344 ng/mL and the Tmax ([9]; read-out: median Tmax (converted)) was 50 min.
